Our source for the IC50 values is patent US20240174637A1, “DEGRADERS OF GRK2 AND USES THEREOF” (Sonata Therapeutics, Inc., priority 2021, published 2024).

The target in assay [1] is T1, GRK2 (Homo sapiens, UniProt P25098).
T1 sequence (P25098 1-689): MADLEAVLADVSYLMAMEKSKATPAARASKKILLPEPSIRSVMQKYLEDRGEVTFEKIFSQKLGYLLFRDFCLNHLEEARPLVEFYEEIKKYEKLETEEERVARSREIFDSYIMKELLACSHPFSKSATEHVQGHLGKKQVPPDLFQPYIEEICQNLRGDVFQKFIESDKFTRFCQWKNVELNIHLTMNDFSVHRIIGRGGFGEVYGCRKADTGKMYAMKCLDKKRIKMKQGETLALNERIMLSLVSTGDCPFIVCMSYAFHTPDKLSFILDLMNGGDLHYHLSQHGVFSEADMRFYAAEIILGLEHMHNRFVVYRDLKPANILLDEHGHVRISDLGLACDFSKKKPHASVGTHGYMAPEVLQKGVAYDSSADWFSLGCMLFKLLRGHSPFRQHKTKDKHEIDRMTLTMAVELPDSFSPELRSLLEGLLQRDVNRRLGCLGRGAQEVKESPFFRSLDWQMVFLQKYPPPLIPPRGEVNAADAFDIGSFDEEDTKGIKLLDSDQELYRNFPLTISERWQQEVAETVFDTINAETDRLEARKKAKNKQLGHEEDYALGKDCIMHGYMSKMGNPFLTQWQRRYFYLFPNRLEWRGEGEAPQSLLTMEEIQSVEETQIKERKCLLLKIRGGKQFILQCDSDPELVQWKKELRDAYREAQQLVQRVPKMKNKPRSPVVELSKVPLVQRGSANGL
The assay can be described thus: Second ADPGlo GRK2 Inhibition Assay (Example 3). In kind it is biochemical. The following applies: ADP-Glo, 20 μM ATP; read-out: Second ADPGlo Enzymatic GRK2 Assay: IC50 (nM) (Example 3). The method, then: Assay: GRK2 (2 nM) was incubated with ATP (20 μM) and GRKtide (1.2 mg/mL) in 11 μL of assay buffer (see above) for 180 min at room temperature. Compounds were dissolved in 100% DMSO, serially diluted 3.16-fold from 100 μM with 10 concentration points and transferred as 100× into assay plate (final compounds concentration in the reaction plate from 1 μM).
Materials: GRK2 was purchased from SignalChem (Cat #A14-10G, Lot #X645-3). Substrate GRKtide was from SignalChem (Cat #G46-58, Lot #R339-6). ADP-Glo Kinase Assay from Promega (Cat #V9102). Assay buffer consisted of 20 mM HEPES (pH7.5), 20 mM MgCl2, 0.01% Tween-20, 0.05 mM DDT. 384-well white plates were from Corning (Cat #4513).
HTS protocol: Add 5.5 μL of 2× substrate-enzyme mix into all columns except of 1-2 and 24 of reaction plate. Spin 15 seconds at 200 g. Transfer 1 ul of compounds from the plate with serial dilutions (384 well plate with 22 uL of compound in columns 3-22/DMSO solution 1-2,23-24) to Dilution plate (384 well plate with 49 uL of buffer with 2×40 μM ATP). After mixing transfer 5.5 ul from Dilution plate to Reaction plate (to 5.5 μL of 2× substrate-enzyme mix). Spin 15 seconds at 200 g and incubate for 180 min at room temperature with sealing. Add 3 μL ADP-Glo reagent to all the wells. Spin 15 seconds at 200 g and incubate for 40 min at room temperature. Add 6 μL Detection solution to all the wells. Incubate for 30 min at room temperature. Read plate using ClarioStar Plus (BMG).
(§1) Data Analysis: Data were analyzed in GraphPad Prism 5.0.2. Each HTS plate contains compounds in columns 3-22, controls (enzyme, no compound) in column 23, and blanks (no enzyme) in columns 2. HTS percent inhibition was calculated for each compound from the signal in luminescence units and the mean of the plate controls and the mean of the plate blanks using the following equation: % Inhibition=100*(1-(signal-blank mean)/(control mean-blank mean)).
On the technique in general: ADP-Glo first removes unused ATP, then detects ADP through luciferase.

Assay [2] addresses T1, GRK2. The assay can be described thus: ADPGlo GRK2 Inhibition Assay (Example 2). It is filed as biochemical. The following applies: ADP-Glo, 10 μM ATP; read-out: ADP Glo Enzymatic GRK2 Assay: IC50 (nM) (Example 2). The protocol:
Assay: GRK2 (7.5 nM) was incubated with ATP (10 μM) and GRKtide (0.3 mg/mL) in 5 μL of assay buffer (see above) for 180 min at room temperature. HTS was performed using 1 μM compound. Compounds were dissolved in 100% DMSO, serially diluted tree-fold from 100 μM concentration to 46 nM and transferred (50 nL) into assay ready plate.
Materials: GRK2 was purchased from SignalChem (Cat #A14-10G, Lot #X645-3). Substrate GRKtide was from SignalChem (Cat #G46-58, Lot #R339-6). ADP-Glo Kinase Assay from Promega (Cat #V9102). Assay buffer consisted of 25 mM HEPES (pH7.5), 10 mM MgCl2, 0.01% Tween-20, 1 mM DDT. 384-well white plates were from Greiner […] (Item #784075).
HTS protocol: Take 384 well plate with 50 nL of compound in columns 3-22/DMSO solution 1-2,23-24. Add 2.5 μL assay buffer to columns 23 and 24 using Thermo Scientific Multidrop Combi Dispenser. Add 2.5 μL of 2× enzyme solution (15 nM in 1× assay buffer) using Thermo Scientific Multidrop Combi Reagent Dispenser to all columns except of 23 and 24. Incubate for 15 minutes. Fill plate with 2.5 μL of 2× substrate mix (20 μM ATP and 0.6 mg/mL GRKtide in 1× assay buffer) using Thermo Scientific Multidrop Combi Reagent Dispenser. Spin 15 seconds at 1000 rpm and incubate for 180 min at room temperature. Add 5 μL ADP-Glo reagent to all the wells. Spin 15 seconds at 1000 rpm and incubate for 40 min at room temperature. Add 10 μL Detection solution to all the wells. Incubate for 30 min at room temperature. Read plate in Luminescent mode on BMG PheraStar FSX (gain=3600).
as §1, with “8.0.2.” for “5.0.2.”, “columns 1 and 2,” for “column 23,”, “23 and 24.” for “2.”, “Inhibition=100*(1−((signal−blank” for “Inhibition=100*(1-(signal-blank”, “mean−blank mean))). At the final stage of data processing, we obtain dose-response curves, tables and SDF-files with the results of screening for each substance.” for “mean-blank mean)).”

As to `Cc1ncsc1-c1ccc(CNC(=O)[C@@H]2C[C@@H](O)CN2C(=O)[C@@H](NC(=O)COCCOCCCCCCOc2cccc(CNC(=O)c3cccc(NCc4nnc(-c5ccncn5)n4C)c3)c2)C(C)(C)C)cc1` [Compound D101], the IC50 on GRK2 [1] and on GRK2 [2] was less than 100 nM each time.

With `Cc1ncsc1-c1ccc(CNC(=O)[C@@H]2C[C@@H](O)CN2C(=O)[C@@H](NC(=O)COCCOCCOCCOCCOCCOCCCCCCOc2cccc(CNC(=O)c3cccc(NCc4nnc(-c5ccncn5)n4C)c3)c2)C(C)(C)C)cc1` [Compound D100], the IC50 at GRK2 [1] and on GRK2 [2] was less than 100 nM each time.
